Measurements: the NIST ThermoML archive (doi:10.1016/j.jct.2018.11.011)
± gives the expanded uncertainty stated by the source.

Experiment: molar heat capacity at constant pressure
Settings: 101.33 kPa, Crystal, Small (less than 1 g) adiabatic calorimetry

O=C([O][Sb]([c]1ccccc1)([c]1ccccc1)([c]1ccccc1)[c]1ccccc1)c1ccccc1 [tetraphenylantimony benzoate]
molar heat capacity at constant pressure (5 K): 1.72 ± 0.083 J/K/mol
molar heat capacity at constant pressure (5.54 K): 2.34 ± 0.11 J/K/mol
molar heat capacity at constant pressure (5.81 K): 2.55 ± 0.12 J/K/mol
molar heat capacity at constant pressure (6.27 K): 3.24 ± 0.14 J/K/mol
molar heat capacity at constant pressure (6.56 K): 3.56 ± 0.16 J/K/mol
molar heat capacity at constant pressure (6.92 K): 4.25 ± 0.18 J/K/mol
molar heat capacity at constant pressure (7.71 K): 5.93 ± 0.26 J/K/mol
molar heat capacity at constant pressure (7.98 K): 6.39 ± 0.27 J/K/mol
molar heat capacity at constant pressure (8.34 K): 7.12 ± 0.31 J/K/mol
molar heat capacity at constant pressure (8.69 K): 7.77 ± 0.33 J/K/mol
molar heat capacity at constant pressure (9.05 K): 8.56 ± 0.33 J/K/mol
molar heat capacity at constant pressure (9.58 K): 9.73 ± 0.42 J/K/mol
molar heat capacity at constant pressure (10 K): 10.9 ± 0.5 J/K/mol
molar heat capacity at constant pressure (10.05 K): 10.9 ± 0.5 J/K/mol
molar heat capacity at constant pressure (10.43 K): 12 ± 0.5 J/K/mol
molar heat capacity at constant pressure (10.82 K): 13.1 ± 0.58 J/K/mol
molar heat capacity at constant pressure (11.21 K): 14.2 ± 0.58 J/K/mol
molar heat capacity at constant pressure (11.44 K): 14.8 ± 0.58 J/K/mol
molar heat capacity at constant pressure (11.66 K): 15.5 ± 0.67 J/K/mol
molar heat capacity at constant pressure (12.08 K): 16.7 ± 0.67 J/K/mol
molar heat capacity at constant pressure (12.66 K): 18.5 ± 0.75 J/K/mol
molar heat capacity at constant pressure (13.36 K): 20.5 ± 0.83 J/K/mol
molar heat capacity at constant pressure (14.03 K): 22.5 ± 0.91 J/K/mol
molar heat capacity at constant pressure (14.57 K): 24.4 ± 1 J/K/mol
molar heat capacity at constant pressure (15 K): 25.6 ± 1.1 J/K/mol
molar heat capacity at constant pressure (15.26 K): 26.4 ± 0.42 J/K/mol
molar heat capacity at constant pressure (15.94 K): 28.6 ± 0.42 J/K/mol
molar heat capacity at constant pressure (16.62 K): 30.87 ± 0.44 J/K/mol
molar heat capacity at constant pressure (17.29 K): 33.05 ± 0.47 J/K/mol
molar heat capacity at constant pressure (17.96 K): 35.26 ± 0.49 J/K/mol
molar heat capacity at constant pressure (18.62 K): 37.36 ± 0.52 J/K/mol
molar heat capacity at constant pressure (18.8 K): 38.09 ± 0.52 J/K/mol
molar heat capacity at constant pressure (19.31 K): 39.63 ± 0.54 J/K/mol
molar heat capacity at constant pressure (19.97 K): 41.7 ± 0.56 J/K/mol
molar heat capacity at constant pressure (20 K): 41.81 ± 0.57 J/K/mol
molar heat capacity at constant pressure (20.6 K): 43.6 ± 0.58 J/K/mol
molar heat capacity at constant pressure (22.51 K): 49.65 ± 0.64 J/K/mol
molar heat capacity at constant pressure (25 K): 57.77 ± 0.72 J/K/mol
molar heat capacity at constant pressure (25.94 K): 60.95 ± 0.75 J/K/mol
molar heat capacity at constant pressure (29.45 K): 71.99 ± 0.84 J/K/mol
molar heat capacity at constant pressure (30 K): 73.7 ± 0.81 J/K/mol
molar heat capacity at constant pressure (31.45 K): 78.36 ± 0.86 J/K/mol
molar heat capacity at constant pressure (33 K): 82.85 ± 0.91 J/K/mol
molar heat capacity at constant pressure (33.62 K): 84.64 ± 0.91 J/K/mol
molar heat capacity at constant pressure (35 K): 88.8 ± 1 J/K/mol
molar heat capacity at constant pressure (35.87 K): 91.21 ± 1 J/K/mol
molar heat capacity at constant pressure (36.5 K): 93.12 ± 1 J/K/mol
molar heat capacity at constant pressure (40 K): 102.8 ± 1.1 J/K/mol
molar heat capacity at constant pressure (40.06 K): 103.7 ± 0.58 J/K/mol
molar heat capacity at constant pressure (43 K): 111 ± 0.67 J/K/mol
molar heat capacity at constant pressure (45 K): 115.8 ± 0.67 J/K/mol
molar heat capacity at constant pressure (46.68 K): 120.9 ± 0.67 J/K/mol
molar heat capacity at constant pressure (49.76 K): 127.9 ± 0.75 J/K/mol
molar heat capacity at constant pressure (50 K): 128 ± 0.75 J/K/mol
molar heat capacity at constant pressure (53.38 K): 136.9 ± 0.75 J/K/mol
molar heat capacity at constant pressure (57.02 K): 145.6 ± 0.83 J/K/mol
molar heat capacity at constant pressure (60 K): 151.4 ± 0.83 J/K/mol
molar heat capacity at constant pressure (60.66 K): 154.2 ± 0.91 J/K/mol
molar heat capacity at constant pressure (64.31 K): 162 ± 0.91 J/K/mol
molar heat capacity at constant pressure (67.97 K): 169.5 ± 0.91 J/K/mol
molar heat capacity at constant pressure (70 K): 174.2 ± 1 J/K/mol
molar heat capacity at constant pressure (71.63 K): 177 ± 1 J/K/mol
molar heat capacity at constant pressure (75.29 K): 185.6 ± 1.1 J/K/mol
molar heat capacity at constant pressure (78 K): 192 ± 1.1 J/K/mol
molar heat capacity at constant pressure (80 K): 195.9 ± 1.1 J/K/mol
molar heat capacity at constant pressure (82.52 K): 200.4 ± 1.1 J/K/mol
molar heat capacity at constant pressure (83.53 K): 202.5 ± 1.2 J/K/mol
molar heat capacity at constant pressure (85.67 K): 207 ± 1.2 J/K/mol
molar heat capacity at constant pressure (88.37 K): 212.3 ± 1.2 J/K/mol
molar heat capacity at constant pressure (90 K): 214.8 ± 1.2 J/K/mol
molar heat capacity at constant pressure (90.22 K): 215.5 ± 1.2 J/K/mol
molar heat capacity at constant pressure (92.48 K): 218.9 ± 1.2 J/K/mol
molar heat capacity at constant pressure (93.76 K): 221 ± 1.2 J/K/mol
molar heat capacity at constant pressure (95.63 K): 223.7 ± 1.2 J/K/mol
molar heat capacity at constant pressure (99.16 K): 228.6 ± 1.2 J/K/mol
molar heat capacity at constant pressure (100 K): 229.7 ± 1.2 J/K/mol
molar heat capacity at constant pressure (102.7 K): 234 ± 1.2 J/K/mol
molar heat capacity at constant pressure (106.23 K): 240 ± 1.2 J/K/mol
molar heat capacity at constant pressure (109.78 K): 244.9 ± 1.2 J/K/mol
molar heat capacity at constant pressure (113.32 K): 250.2 ± 1.3 J/K/mol
molar heat capacity at constant pressure (116 K): 255 ± 1.3 J/K/mol
molar heat capacity at constant pressure (119.8 K): 262 ± 1.3 J/K/mol
molar heat capacity at constant pressure (120 K): 262 ± 1.3 J/K/mol
molar heat capacity at constant pressure (123.36 K): 267.2 ± 1.4 J/K/mol
molar heat capacity at constant pressure (126.75 K): 273.3 ± 1.4 J/K/mol
molar heat capacity at constant pressure (128 K): 275.2 ± 1.4 J/K/mol
molar heat capacity at constant pressure (132.8 K): 282.4 ± 1.5 J/K/mol
molar heat capacity at constant pressure (136 K): 287 ± 1.5 J/K/mol
molar heat capacity at constant pressure (139.71 K): 293.3 ± 1.5 J/K/mol
molar heat capacity at constant pressure (140 K): 293.6 ± 1.5 J/K/mol
molar heat capacity at constant pressure (144.47 K): 301.3 ± 1.6 J/K/mol
molar heat capacity at constant pressure (146.16 K): 303.1 ± 1.6 J/K/mol
molar heat capacity at constant pressure (151.28 K): 310.8 ± 1.6 J/K/mol
molar heat capacity at constant pressure (155 K): 315 ± 1.7 J/K/mol
molar heat capacity at constant pressure (158.48 K): 321.9 ± 1.7 J/K/mol
molar heat capacity at constant pressure (160 K): 324.2 ± 1.7 J/K/mol
molar heat capacity at constant pressure (161 K): 326 ± 1.7 J/K/mol
molar heat capacity at constant pressure (164.87 K): 332.4 ± 1.7 J/K/mol
molar heat capacity at constant pressure (168.1 K): 336.4 ± 1.7 J/K/mol
molar heat capacity at constant pressure (169.28 K): 338.2 ± 1.7 J/K/mol
molar heat capacity at constant pressure (172.52 K): 344.3 ± 1.7 J/K/mol
